In brackets after ≈: the same amount, converted by molar mass. Several values for one entry are separate records, joined by “and”; a condition that tells them apart may be missing. Identical values can stand only once. Counter-ions that a name gives are not always drawn. Like-named read-outs stand apart in the source and are kept apart here.

Data set [1] deals with Mycobacterium tuberculosis standard strain H37Rv. Briefly: Microplate Alamar Blue Assay (MABA), minimum inhibitory concentration. The conditions noted are these: for MIC: Mycobacterium tuberculosis; for in vitro anti-tuberculosis activity (in words): experimental data in Table 1. Format: cell-based.
Where [2] appears, read: H37Rv, 7H9 liquid medium, MABA, lowest drug concentration that prevented the color change (blue to pink), read-out: MIC.

A word on the melting point: it is the temperature, or range, at which the solid turns liquid. Take `CCCCCCCCNCCNC1C2CC3CC(C2)CC1C3` (stereo not drawn) (as salt: hydrochloride) [XHJ-5-3, N-(adamantan-2-yl)-N′-octyl-ethane-1,2-diamine dihydrochloride]: the melting point lay in the range of 224 to 226 °C.

`CCCCCCNCCNC1C2CC3CC(C2)CC1C3` (stereo not drawn) (as salt: hydrochloride) [XHJ-5-5, N-(adamantan-2-yl)-N′-hexyl-ethane-1,2-diamine dihydrochloride] displayed a melting point of 212 to 216 °C.

As usually defined, the MIC is the smallest concentration in the dilution series that meets the test's criterion for growth inhibition. Turning to `NNC(=O)c1ccncc1` [INH, isoniazid, reference compound], the MIC in data set [1] (setting [2]) came to 0.05 µg/mL (≈ 0.365 µM).

In the case of `CO[C@H]1/C=C/O[C@@]2(C)Oc3c(C)c(O)c4c(O)c(c(/C=N/N5CCN(C)CC5)c(O)c4c3C2=O)NC(=O)/C(C)=C\C=C\[C@H](C)[C@H](O)[C@@H](C)[C@@H](O)[C@@H](C)[C@H](OC(C)=O)[C@@H]1C` [RFP, rifampin, reference compound], in data set [1] (setting [2]), the minimum inhibitory concentration (MIC) came out at 0.048 µg/mL (≈ 0.0583 µM).

`CC(C)=CCC/C(C)=C/C(=O)NCCNC1C2CC3CC(C2)CC1C3.Cl` (stereo not drawn) [XHJ-2-32, 3,7-dimethyl-oct-2,6-dienoic acid [2-(adamantan-2-yl-amino)ethyl]amide hydrochloride] registered a melting point of 150 to 164 °C. For the same compound, 7.75 µg/mL was the least that counted as inhibitory in data set [1] (H37RV) (MIC). Also, the “in vitro anti-tuberculosis activity (in words)” value in data set [1] is recorded as “good activity”.

For `CC(C)=CCC/C(C)=C/CNCC(=O)NC1C2CC3CC(C2)CC1C3.Cl` (stereo not drawn) [XHJ-2-37, N-adamantan-2-yl-2-(3,7-dimethyl-oct-2,6-dienylamino)-acetamide hydrochloride], the melting point lay in the range of 168 to 172 °C. Also, the MIC in data set [1] (H37RV) is below 0.5 µg/mL. In addition, the “in vitro anti-tuberculosis activity (in words)” value in data set [1] was “good activity”.

In turn, `CCS(=O)(=O)N(C/C=C(\C)CCC=C(C)C)CCN.Cl` [XHJ-2-39, N-geranyl-N-(2-aminoethyl)ethylsulfonamide hydrochloride] returned a melting point of 103 to 106 °C. In addition, in data set [1] (setting [2]), the MIC was above 32 µg/mL.

In the case of `CC(C)=CCC/C(C)=C/CN(CCN)S(=O)(=O)c1ccc(C)cc1.Cl` [XHJ-2-45, N-geranyl-N-(2-aminoethyl)-p-toluenesulfonamide hydrochloride], the melting point was in the range of 134 to 137 °C. Besides, the MIC in data set [1] (setting [2]) was 31.5 µg/mL.

As for `CCS(=O)(=O)N(C/C=C(\C)CCC=C(C)C)CCNC1C2CC3CC(C2)CC1C3.Cl` (stereo not drawn) [XHJ-3-1, N-adamantan-2-yl-N′,N′-ethylsulfonyl-(3,7-dimethyl-oct-2,6-dienyl)-ethane-1,2-diamine hydrochloride], the melting point is 108 to 112 °C and 103 to 106 °C. Moreover, it took 6.96 µg/mL to inhibit growth in data set [1] (H37RV) (MIC). For the same compound, in data set [1], the “in vitro anti-tuberculosis activity (in words)” value is given as “good activity”.

For the compound `CC(C)=CCC/C(C)=C/CN(CCNC1C2CC3CC(C2)CC1C3)S(=O)(=O)c1ccc(C)cc1.Cl` (stereo not drawn) [XHJ-3-3, N-adamantan-2-yl-N′,N′-p-toluenesulfonyl-(3,7-dimethyl-oct-2,6-dienyl)-ethane-1,2-diamine hydrochloride], the melting point lay within 179 to 182 °C. For the same compound, the minimum inhibitory concentration (MIC) in data set [1] (H37RV) amounted to 3.76 µg/mL. For the same compound, in data set [1], the “in vitro anti-tuberculosis activity (in words)” value was “good activity”.

`CC(C)=CCC/C(C)=C/CN(CCNC1C2CC3CC(C2)CC1C3)C(=O)/C=C(\C)CCC=C(C)C` (stereo not drawn) [XHJ-3-11, N-adamantan-2-yl-N′,N′-(3,7-dimethyl-oct-2,6-dienyl)-(3,7-dimethyl-oct-2,6-dienoyl)-ethane-1,2-diamine]: in data set [1] (H37RV), the minimal inhibitory concentration (MIC) was above 32 µg/mL.

The compound `CC(C)=CCC/C(C)=C/CN(CCN(C(=O)c1c[nH]c2ccccc12)C1C2CC3CC(C2)CC1C3)C(=O)c1c[nH]c2ccccc12` (stereo not drawn) [XHJ-3-15, N,N-adamantan-2-yl-(3-indolylformyl)-N′,N′-(3,7-dimethyl-oct-2,6-dienyl)-(3-indolylformyl)-ethane-1,2-diamine] yielded a melting point of 248 to 252 °C. The compound also displayed an MIC in data set [1] (H37RV) above 32 µg/mL.

Take `CC(C)=CCC/C(C)=C/CN(CCNC1C2CC3CC(C2)CC1C3)C(=O)CCc1c[nH]c2ccccc12` (stereo not drawn) [XHJ-3-27, N-adamantan-2-yl-N′,N′-(3-indolylpropionyl)-(3,7-dimethyl-oct-2,6-dienyl)-ethane-1,2-diamine]: the MIC in data set [1] (H37RV) amounted to 1.96 µg/mL (≈ 3.91 µM). The “in vitro anti-tuberculosis activity (in words)” value in data set [1] is on record as “good activity”.

As for `COc1cc(C(=O)N(C/C=C(\C)CCC=C(C)C)CCNC2C3CC4CC(C3)CC2C4)cc(OC)c1OC` (stereo not drawn) [XHJ-3-29, N-adamantan-2-yl-N′,N′-(3,4,5-trimethoxybenzoyl)-(3,7-dimethyl-oct-2,6-dienyl)-ethane-1,2-diamine], inhibition of growth in data set [1] (H37RV) (MIC) required 3.91 µg/mL (≈ 7.45 µM). The “in vitro anti-tuberculosis activity (in words)” value in data set [1] is given as “good activity”.

Turning to `CCCCCCCCCCC(=O)N(C/C=C(\C)CCC=C(C)C)CCNC1C2CC3CC(C2)CC1C3` (stereo not drawn) [XHJ-3-31, N-adamantan-2-yl-N′,N′-undecanoyl-(3,7-dimethyl-oct-2,6-dienyl)-ethane-1,2-diamine], in data set [1] (H37RV), the minimal inhibitory concentration (MIC) turned out to be 2.84 µg/mL (≈ 5.7 µM). In addition, in data set [1], the “in vitro anti-tuberculosis activity (in words)” value was “good activity”.

As for `CC(C)=CCC/C(C)=C/CN(CCN)C1C2CC3CC(C2)CC1C3` (stereo not drawn) [XHJ-3-45, N,N-(adamantan-2-yl)-(3,7-dimethyl-oct-2,6-dienyl)-ethane-1,2-diamine], the melting point fell in the range of 102 to 104 °C. Moreover, in data set [1] (H37RV), the minimum inhibitory concentration (MIC) was below 0.5 µg/mL. Moreover, in data set [1], the “in vitro anti-tuberculosis activity (in words)” value is recorded as “better activity”.

Turning to `CCS(=O)(=O)NCCNC1C2CC3CC(C2)CC1C3` (stereo not drawn) [XHJ-3-46, N-(adamantan-2-yl)-N′-ethylsulfonyl-ethane-1,2-diamine], the MIC in data set [1] (setting [2]) is above 32 µg/mL.

In the case of `CC(C)=CCC/C(C)=C/CN(CCN(Cc1ccccc1)C1C2CC3CC(C2)CC1C3)Cc1ccccc1` (stereo not drawn) [XHJ-4-11, N,N-(adamantan-2-yl)-benzyl-N′,N′-(3,7-dimethyl-oct-2,6-dienyl)-benzyl-ethane-1,2-diamine], in data set [1] (H37RV), the MIC turned out to be 30.8 µg/mL (≈ 60.3 µM).

In turn, `CCCCCCCCN(C/C=C(\C)CCC=C(C)C)CCN(CCCCCCCC)C1C2CC3CC(C2)CC1C3` (stereo not drawn) [XHJ-4-15, N,N-(adamantan-2-yl)-octyl-N′,N′-(3,7-dimethyl-oct-2,6-dienyl)-octyl-ethane-1,2-diamine] returned an MIC in data set [1] (H37RV) above 32 µg/mL.

In turn, `CCCCCCCCNCCNC1C2CC3CC(C2)CC1C3` (stereo not drawn) [XHJ-5-3, N-(adamantan-2-yl)-N′-octyl-ethane-1,2-diamine dihydrochloride] returned a minimum inhibitory concentration (MIC) in data set [1] (H37RV) of 0.986 µg/mL. In addition, the “in vitro anti-tuberculosis activity (in words)” value in data set [1] was “better activity”.

In data set [1] (H37RV), `CCCCCCNCCNC1C2CC3CC(C2)CC1C3` (stereo not drawn) [XHJ-5-5, N-(adamantan-2-yl)-N′-hexyl-ethane-1,2-diamine dihydrochloride] had a minimum inhibitory concentration (MIC) of 0.982 µg/mL. Besides, the “in vitro anti-tuberculosis activity (in words)” value in data set [1] is listed as “better activity”.

Take `CC(C)=CCC/C(C)=C/CNCCNC(c1ccccc1)c1cccnc1` (stereo not drawn) [XHJ-5-8, N-(phenyl-pyridin-3-yl-methyl)-N′-(3,7-dimethyl-oct-2,6-dienyl)-ethane-1,2-diamine]: the MIC in data set [1] (H37RV) is 16 µg/mL (≈ 44 µM). Also, the “in vitro anti-tuberculosis activity (in words)” value in data set [1] is “better activity”.

In the case of `CC(C)=CCC/C(C)=C/CNCCNC(c1ccccn1)c1ccccn1` [XHJ-5-14, N-(dipyridin-2-yl-methyl)-N′-(3,7-dimethyl-oct-2,6-dienyl)-ethane-1,2-diamine], the minimal inhibitory concentration (MIC) in data set [1] (H37RV) amounted to 4 µg/mL (≈ 11 µM). The “in vitro anti-tuberculosis activity (in words)” value in data set [1] is recorded as “better activity”.

`C(CNC1C2CC3CC(C2)CC1C3)NC1CC1` (stereo not drawn) [XHJ-5-18, N-(adamantan-2-yl)-N′-cyclopropyl-ethane-1,2-diamine] returned a melting point of 197 to 200 °C. In addition, in data set [1] (setting [2]), the minimal inhibitory concentration (MIC) was above 32 µg/mL.

For the origin of these results see US20220089521A1, “ETHYLENEDIAMINE COMPOUND AND USE THEREOF” (priority 2018, published 2022).
